Measured values from patent US7842324B2 (Senomyx, Inc., priority 2005, dated 2010).

Tests used:
Format in all cases: in vivo, human
tasters [1] = assay: Reduced sugar ice cream sensory evaluation; conditions: for Average Sweet Intensity Score: scale 1 to 10
Description: A water soluble liquid sweetener concentrate composition comprising 0.1% by weight of Example 23 in USP grade propylene glycol can be prepared by mixing the amide compound and propylene glycol by stirring the composition while warming to about 50° C., then milling the resulting liquid in a Silverson mill with a square basket cage at 300-600 rpms, to further ensure homogeneity of the liquid. An alternative method actually used was that the amide compound was dissolved in ethanol (1:1000 dilution), sonicated for 20 minutes, and 19.80 grams of the diluted sweet enhancer sample was added to the vanilla flavoring (which contains 20-30% ethyl alcohol) and sonicate that sample for an additional 20 minutes.
Heavy cream and whole milk were placed into a 5000 mL stainless steel cylinder and mixed using a LIGHTNIN™ Mixer at 500 to 650 rpms using a 2.5 inch (6.35 cm) impeller with three straight blades. A vortex was created by positioning the impeller blades at a 30 to 45° angle. The sweet enhancer was added using the vanilla/ethanol mixture. Some milk/cream was added back to the weigh dish of the sweet enhancer to ensure all the amide compound was removed from the weigh dish. The sugar/stabilizer mixture was slowly added to the vortex of the mixing milk/cream solution. The resulting solution was mixed for 10 minutes until the sugar dissolved and the stabilizer rehydrated. Care was taken to ensured that no lumps or undissolved stabilizer existed in the solution. The remaining sugar was added to the vortex and mixing was continued for an additional 10 minutes. Egg yolks and vanilla flavor were next added and the mixing continued for 5 more minutes.
Ice cream samples were evaluated by tasters, using a rank rating design. Tasters used an anchored scale from 1 to 10 (1 being no sweetness, 10 being intense sweetness). Three digit coded samples were randomized and the following samples were given to tasters: full sugar version, ⅔ sugared version, ⅔ sugared+3.3 ppm or 6.6 ppm of compound 23. Tasters were instructed to hold the ice cream samples in their mouth for at least 5 seconds, expectorate the sample, and evaluate/rank the “peak” of sweetness intensity.

tasters [2] = assay: Reduced sugar soda syrup (strawberry soda) sensory evaluation; conditions: scale 1 to 10
Description: 1000.00 g of the ⅔ sugared syrup comprising compound 23 was formulated in the following manner. Compound 23 was diluted with maltodextrin (1:100) to make a sweetener concentrate composition for addition to the soda syrup formulation. An alternative method is to make a solution of amide compound in propylene glycol that can be added directly into the liquid soda syrup formulation. A 100 g batch of dry sweetener concentrate composition was produced by weighing 1.000 g of the enhancer and 99.0000 g of 10 D.E. maltodextrin. 50 g of the maltodextrin was placed on the bottom of a clean and dried mortar and the 1.0000 g of amide compound was added and slowly mixed into the maltodextrin. In a planetary mixer with a wire whip attachment (KITCHEN AIDE™ Mixer), the rest of the maltodextrin was added to the mixing bowl, and the contents of the mortar was placed into the mixer and the mixer was turned on to a slow speed (setting 3). A rubber spatula was used to remove the contents of the mortar and the contents were allowed to mix for an additional 10 minutes. A rubber spatula was used to scrap the walls and bottom of the bowl. The mixture was blended on low for another 15 minutes. The […] sweetener concentrate composition was stored in an air tight amber glass container. […]

tasters [3] = assay: Reduced sugar frosted breakfast cereal sensory evaluation; conditions: for Avgage Sweet Intensity Score: scale 1 to 10
Description: A 100 gram sample of a solid sweetener concentrate composition was prepared from 1.000 g of compound 23 and 99.000 g of 10 D.E. maltodextrin. “DE” i.e. “[…]” is a measure of the degree of depolymerization of the corn starches used to manufacture maltodextrins. Fifty grams of the maltodextrin was placed on the bottom of a clean and dried mortar and the 1.000 gr of compound 23 was added to the maltodextrin and slowly ground and mixed into the maltodextrin. The remaining 50 grams of maltodextrin was added to a planetary mixer with a wire whip attachment (KITCHEN AIDE™ Mixer), then the contents of the mortar were placed into the mixer and the mixer was turned on to a slow speed (setting 3), and allowed to mix for 10 minutes. A rubber spatula was used to scrap the walls and bottom of the bowl, then the mixture was blended on low for another 15 minutes. The 100× diluted solid sweetener concentrate composition was stored in an air tight amber glass container. The contents were mixed in the glass container before taking out aliquots of the dry diluted sweet enhancer.
Using the KITCHEN AIDE™ Mixer with the wire whip attachment, the granulated sugar, powdered sugar, gum arabic, dextrin, and the 1:100 diluted sweetener concentrate composition were mixed at speed 3. Water and the HFCS were placed into a 1000 mL stainless steel cylinder and mixed using a LIGHTNIN™ Mixer at 500 to 650 rpms using a 2.5 inch (6.35 cm) impeller with three straight blades until the HFCS was dissolved (5 minutes). A vortex was created by positioning the impeller blades at a 30 to 45° angle. The dry/sugar/gum dry blend was added to the vortex very slowly and allowed to mix until the sugar dissolved and the gum rehydrated. An additional 10 minute mixing time was allowed after the last of the dry blend was added, to form the frosting. […]
Frosted corn flake cereal samples were evaluated using a rank rating design by tasters. […]

CC(C)CNC(=O)C(C)(C)c1ccc(-c2cncc(C#N)c2)cc1 [Compound 23, 2-(4-(5-cyanopyridin-3-yl)phenyl)-N-isobutyl-2-methylpropanamide]
sweetness compared with ⅔ sugared control ice cream (tasters [1]; 3.3 ppm and 6.6 ppm in ⅔ sugared ice cream): scored higher in sweetness than the ⅔ sugared control sample
sweetness compared with fully sugared ice cream (tasters [1]; 6.6 ppm in ⅔ sugared ice cream): nearly as sweet as the fully sugared ice cream
Qualitative feedback of tasters (tasters [1]; ice cream samples containing compound 23): “slight lingering” and “slight delay of sweetness”
Average Sweet Intensity Score (tasters [1]; ⅔ sugared ice cream + 3.3 ppm): 5.143
Average Sweet Intensity Score (tasters [1]; ⅔ sugared ice cream + 6.6 ppm): 7.357
Average Sweet Intensity Score (tasters [2]; ⅔ sugared with HFCS strawberry soda + 1.0 ppm): 6.429
Average Sweet Intensity Score (tasters [2]; ⅔ sugared with HFCS strawberry soda + 1.3 ppm): 7.214
sweetness compared with fully sugar frosted cornflake control (tasters [3]; 9.6 ppm in frosting): almost as much sweetness as the fully sugar frosted cornflake control
Avgage Sweet Intensity Score (tasters [3]; ⅔ sugared frosted corn flakes + 6.6 ppm): 7.5
Avgage Sweet Intensity Score (tasters [3]; ⅔ sugared frosted corn flakes + 9.6 ppm): 7.81
